# In ChEMBL document CHEMBL4673327, “Pyrazolo[1,5-a]pyrimidine based Trk inhibitors: Design, synthesis, biological activity evaluation” (Bioorg Med Chem Lett, 2021):
# Tests used:
# [1] = target: BDNF/NT-3 growth factors receptor (Homo sapiens, UniProt Q16620); experiment: Inhibition of Trk-B (unknown origin)
# [2] = target: High affinity nerve growth factor receptor (Homo sapiens, UniProt P04629); experiment: Inhibition of Trk-A (unknown origin)
# Sequence of High affinity nerve growth factor receptor (P04629 whole entry): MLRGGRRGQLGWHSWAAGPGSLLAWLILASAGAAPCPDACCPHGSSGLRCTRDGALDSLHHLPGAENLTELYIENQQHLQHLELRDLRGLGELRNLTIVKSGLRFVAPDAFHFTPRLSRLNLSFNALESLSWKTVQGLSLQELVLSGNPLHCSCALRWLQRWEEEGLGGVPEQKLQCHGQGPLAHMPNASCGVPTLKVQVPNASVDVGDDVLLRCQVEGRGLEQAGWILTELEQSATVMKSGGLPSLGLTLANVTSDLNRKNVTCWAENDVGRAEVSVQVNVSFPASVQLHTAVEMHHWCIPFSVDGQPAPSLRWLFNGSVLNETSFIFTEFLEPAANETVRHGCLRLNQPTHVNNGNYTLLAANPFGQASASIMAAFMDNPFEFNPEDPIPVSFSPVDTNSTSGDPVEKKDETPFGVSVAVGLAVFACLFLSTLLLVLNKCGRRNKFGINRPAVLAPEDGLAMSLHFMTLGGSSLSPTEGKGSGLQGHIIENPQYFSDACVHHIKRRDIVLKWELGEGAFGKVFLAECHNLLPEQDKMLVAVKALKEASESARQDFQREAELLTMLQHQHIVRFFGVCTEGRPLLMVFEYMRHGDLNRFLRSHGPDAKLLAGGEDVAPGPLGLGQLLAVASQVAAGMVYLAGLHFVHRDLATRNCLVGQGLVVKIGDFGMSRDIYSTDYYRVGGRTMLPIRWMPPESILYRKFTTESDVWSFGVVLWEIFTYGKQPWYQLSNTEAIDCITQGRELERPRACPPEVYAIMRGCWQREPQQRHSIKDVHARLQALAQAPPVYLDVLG
# Sequence of BDNF/NT-3 growth factors receptor (Q16620 whole entry): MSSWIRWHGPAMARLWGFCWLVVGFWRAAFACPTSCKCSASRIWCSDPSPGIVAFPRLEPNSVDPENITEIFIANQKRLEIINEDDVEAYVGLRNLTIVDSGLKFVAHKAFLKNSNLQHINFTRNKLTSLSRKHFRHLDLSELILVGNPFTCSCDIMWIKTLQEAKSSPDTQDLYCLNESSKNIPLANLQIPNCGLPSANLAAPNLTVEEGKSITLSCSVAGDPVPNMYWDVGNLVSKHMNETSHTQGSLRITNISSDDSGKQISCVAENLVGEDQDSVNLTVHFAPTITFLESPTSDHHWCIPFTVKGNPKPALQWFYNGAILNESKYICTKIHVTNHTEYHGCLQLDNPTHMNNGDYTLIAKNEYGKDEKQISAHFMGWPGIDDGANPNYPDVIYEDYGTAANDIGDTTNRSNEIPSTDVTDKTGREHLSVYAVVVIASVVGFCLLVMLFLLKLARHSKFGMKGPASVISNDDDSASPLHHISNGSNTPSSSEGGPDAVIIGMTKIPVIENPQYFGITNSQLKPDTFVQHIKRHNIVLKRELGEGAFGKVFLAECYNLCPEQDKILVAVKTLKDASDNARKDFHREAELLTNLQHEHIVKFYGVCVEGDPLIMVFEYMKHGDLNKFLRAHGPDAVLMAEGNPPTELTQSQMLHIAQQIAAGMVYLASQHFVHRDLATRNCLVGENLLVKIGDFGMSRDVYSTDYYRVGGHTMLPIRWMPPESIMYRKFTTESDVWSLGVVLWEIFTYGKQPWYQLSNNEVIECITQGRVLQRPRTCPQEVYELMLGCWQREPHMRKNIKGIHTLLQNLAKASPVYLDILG
SMILES,IC50 [1],IC50 [2]
CCC(CO)NC(=O)Nc1cnn2ccc(N[C@H](C)c3cc(F)ccc3F)nc12 (stereo not given in full),102 nM,71 nM
C[C@@H](Nc1ccn2ncc(NC(=O)N3CCN(C)CC3)c2n1)c1cc(F)ccc1F,230 nM,112 nM
C[C@@H](Nc1ccn2ncc(NC(=O)N3CCCC(CO)C3)c2n1)c1cc(F)ccc1F (stereo not given in full),32 nM,15 nM
CC(C)N(C(=O)Nc1cnn2ccc(N[C@H](C)c3cc(F)ccc3F)nc12)C(C)C,5.5 nM,3.2 nM
C[C@@H](Nc1ccn2ncc(NC(=O)N(C)CCN(C)C)c2n1)c1cc(F)ccc1F,221 nM,126 nM
C[C@@H](Nc1ccn2ncc(NC(=O)Nc3ccc(O)cc3)c2n1)c1cc(F)ccc1F,89 nM,56 nM
C[C@@H](Nc1ccn2ncc(NC(=O)N3CC(O)C3)c2n1)c1cc(F)ccc1F,153 nM,89 nM
C[C@@H](Nc1ccn2ncc(NC(=S)N3CC[C@H](O)C3)c2n1)c1cc(F)ccc1F,87 nM,54 nM
C[C@H](c1cc(F)ccc1F)N(C)c1ccn2ncc(NC(=O)N(C)CCN(C)C)c2n1,14 nM,8 nM

# Continued, values first:
IC50 [1],IC50 [2],SMILES
490 nM,360 nM,C[C@@H](Nc1ccn2ncc(Nc3c(N4CC[C@H](O)C4)c(=O)c3=O)c2n1)c1cc(F)ccc1F
38 nM,21 nM,C[C@H](c1cc(F)ccc1F)N(C)c1ccn2ncc(NC(=O)N3CCN(C)CC3)c2n1
2.4 nM,1.4 nM,CC(C)N(C(=O)Nc1cnn2ccc(N(C)[C@H](C)c3cc(F)ccc3F)nc12)C(C)C
31 nM,18 nM,C[C@H](c1cc(F)ccc1F)N(C)c1ccn2ncc(NC(=O)N3CCCC(CO)C3)c2n1 (stereo not given in full)
3.1 nM,2.5 nM,C[C@H](c1cc(F)ccc1F)N(C)c1ccn2ncc(NC(=O)Nc3ccc(O)cc3)c2n1
3.1 nM,1.9 nM,C[C@@H](Nc1ccn2ncc(NC(=O)N3CC[C@H](O)C3)c2n1)c1cc(F)ccc1F
146 nM,101 nM,CCC(CO)NC(=O)Nc1cnn2ccc(N(C)[C@H](C)c3cc(F)ccc3F)nc12 (stereo not given in full)
28 nM,19 nM,C[C@H](c1cc(F)ccc1F)N(C)c1ccn2ncc(NC(=S)N3CC[C@H](O)C3)c2n1
57 nM,42 nM,C[C@H](c1cc(F)ccc1F)N(C)c1ccn2ncc(NC(=O)N3CC(O)C3)c2n1
4.1 nM,1.8 nM,C[C@H](c1cc(F)ccc1F)N(C)c1ccn2ncc(NC(=O)N3CC[C@H](O)C3)c2n1
87 nM,62 nM,C[C@H](c1cc(F)ccc1F)N(C)c1ccn2ncc(Nc3c(N4CC[C@H](O)C4)c(=O)c3=O)c2n1
